According to ChEMBL document CHEMBL4041467, “Synthesis of novel 15-membered 8a-azahomoerythromycin A acylides: Consequences of structural modification at the C-3 and C-6 position on antibacterial activity” (Eur J Med Chem, 2017):
In brackets after ≈: the same amount, converted by molar mass.

Key:
[1] = Protein binding in rat plasma at 1 ug/ml by LC-MS/MS analysis; assay type: ADME, cell-free; conditions: read-out: PPB (converted)
[2] = AUC(0 to infinity) in Han Wistar rat at 20 mg/kg, po by LC-MS/MS analysis; assay type: ADME, organism-based; design: dose 20 mg/kg, time infinity, route oral; conditions: in vivo
[3] = Fraction unbound in Han Wistar rat plasma at 10 mg/kg, iv by LC-MS/MS analysis; assay type: ADME, organism-based
Streptococcus pneumoniae [4] = assay: Antibacterial activity against Mef-mediated macrolide efflux resistant Streptococcus pneumoniae by agar microdilution method; assay type: functional
Staphylococcus aureus [5] = assay: Antibacterial activity against inducibly macrolide/lincosamide/streptogramin B-resistant Staphylococcus aureus by agar microdilution method; assay type: functional
Streptococcus pyogenes [6] = assay: Antibacterial activity against erythromycin susceptible Streptococcus pyogenes by agar microdilution method; assay type: functional
[7] = Protein binding in mouse plasma at 1 ug/ml by LC-MS/MS analysis; assay type: ADME, cell-free; conditions: read-out: PPB (converted)
[8] = Volume of distribution at steady state in Han Wistar rat at 10 mg/kg, iv by LC-MS/MS analysis; assay type: ADME, organism-based; conditions: in vivo, read-out: Vdss
[9] = AUC(0 to infinity) in Han Wistar rat at 10 mg/kg, iv by LC-MS/MS analysis; assay type: ADME, organism-based; design: dose 10 mg/kg, route intravenous, time infinity; conditions: in vivo
[10] = (§1) Protein binding in human plasma at 1 ug/ml by LC-MS/MS analysis; assay type: ADME, cell-free; conditions: read-out: PPB (converted)
[11] = Cmax in Han Wistar rat at 20 mg/kg, po by LC-MS/MS analysis; assay type: ADME, organism-based; design: dose 20 mg/kg, route oral; conditions: in vivo
Haemophilus influenzae = assay: Antibacterial activity against Haemophilus influenzae by agar microdilution method; assay type: functional
[12] = Clearance in Han Wistar rat at 10 mg/kg, iv by LC-MS/MS analysis; assay type: ADME, organism-based; conditions: in vivo
Staphylococcus aureus [13] = assay: Antibacterial activity against erythromycin susceptible Staphylococcus aureus infected in mouse assessed as increase in mouse survival administered orally 1 hr post infection; assay type: functional; conditions: po
Rattus norvegicus = assay: Unbound clearance in Han Wistar rat at 10 mg/kg, iv by LC-MS/MS analysis; assay type: ADME, organism-based; conditions: in vivo
[14] = Cmax in Han Wistar rat at 10 mg/kg, iv by LC-MS/MS analysis; assay type: ADME, organism-based; design: dose 10 mg/kg, route intravenous; conditions: in vivo
Streptococcus pneumoniae [15] = assay: Antibacterial activity against constitutively macrolide/lincosamide/streptogramin B-resistant Streptococcus pneumoniae by agar microdilution method; assay type: functional
Streptococcus pyogenes [16] = assay: Antibacterial activity against constitutively macrolide/lincosamide/streptogramin B-resistant Streptococcus pyogenes by agar microdilution method; assay type: functional
[17] = Terminal half life in Han Wistar rat at 10 mg/kg, iv by LC-MS/MS analysis; assay type: ADME, organism-based; conditions: in vivo, read-out: beta t1/2 (converted)
[18] = Oral bioavailability in Han Wistar rat at 20 mg/kg by LC-MS/MS analysis; assay type: ADME, organism-based; conditions: in vivo
Streptococcus pneumoniae [19] = assay: Antibacterial activity against erythromycin susceptible Streptococcus pneumoniae by agar microdilution method; assay type: functional
Staphylococcus aureus [20] = assay: Antibacterial activity against constitutively macrolide/lincosamide/streptogramin B-resistant Staphylococcus aureus by agar microdilution method; assay type: functional
Streptococcus pneumoniae [21] = assay: Antibacterial activity against erythromycin susceptible Streptococcus pneumoniae infected in mouse assessed as increase in mouse survival administered orally 1 hr post infection; assay type: functional; conditions: po
Staphylococcus aureus [22] = assay: Antibacterial activity against erythromycin susceptible Staphylococcus aureus by agar microdilution method; assay type: functional
[23] = Tmax in Han Wistar rat at 20 mg/kg, po by LC-MS/MS analysis; assay type: ADME, organism-based; conditions: in vivo
Streptococcus pyogenes [24] = assay: Antibacterial activity against Mef-mediated macrolide efflux resistant Streptococcus pyogenes by agar microdilution method; assay type: functional
Staphylococcus aureus [25] = assay: Ratio of MIC for inducibly macrolide/lincosamide/streptogramin B-resistant Staphylococcus aureus to MIC for erythromycin susceptible Staphylococcus aureus; assay type: functional
[26] = Metabolic stability in mouse liver microsomes assessed as parent compound remaining at 1 uM after 60 mins in presence of NADP by LC-MS/MS analysis; assay type: ADME, microsome; conditions: read-out: Stability
[27] = Metabolic stability in human liver microsomes assessed as parent compound remaining at 1 uM after 60 mins in presence of NADP by LC-MS/MS analysis; assay type: ADME, microsome; conditions: read-out: Stability
[28] = Metabolic stability in rat liver microsomes assessed as parent compound remaining at 1 uM after 60 mins in presence of NADP by LC-MS/MS analysis; assay type: ADME, microsome; conditions: read-out: Stability
Liver [29] = assay: Intrinsic clearance in mouse liver microsomes at 1 uM after 60 mins in presence of NADP by LC-MS/MS analysis; assay type: ADME, microsome; conditions: 1 h
Plasma [30] = assay: Stability in rat plasma at 1 uM up to 120 mins by LC-MS/MS analysis; assay type: ADME, cell-free; conditions: 2 h
[31] = AUC(0 to t) in Han Wistar rat at 20 mg/kg, po by LC-MS/MS analysis; assay type: ADME, organism-based; conditions: in vivo
Staphylococcus aureus [32] = assay: Potency index, ratio of clarithromycin ED50 to compound ED50 for erythromycin susceptible Staphylococcus aureus infected in mouse; assay type: functional
Liver [33] = assay: Intrinsic clearance in human liver microsomes at 1 uM after 60 mins in presence of NADP by LC-MS/MS analysis; assay type: ADME, microsome; conditions: 1 h
[34] = AUC(0 to t) in Han Wistar rat at 10 mg/kg, iv by LC-MS/MS analysis; assay type: ADME, organism-based; conditions: in vivo
Liver [35] = assay: Intrinsic clearance in rat liver microsomes at 1 uM after 60 mins in presence of NADP by LC-MS/MS analysis; assay type: ADME, microsome; conditions: 1 h
Streptococcus pneumoniae [36] = assay: Potency index, ratio of clarithromycin ED50 to compound ED50 for erythromycin susceptible Streptococcus pneumoniae infected in mouse; assay type: functional
Plasma [37] = assay: as §1; assay type: ADME, cell-free
Plasma [38] = assay: Drug uptake in Han Wistar rat plasma at 30 mg/kg, po up to 4 hrs by LC-MS/MS analysis; assay type: ADME, organism-based; conditions: in vivo
[39] = AUC(0 to t) in Han Wistar rat at 30 mg/kg, po by LC-MS/MS analysis; assay type: ADME, organism-based; conditions: in vivo
[40] = Cmax in Han Wistar rat at 30 mg/kg, po by LC-MS/MS analysis; assay type: ADME, organism-based; design: dose 30 mg/kg, route oral; conditions: in vivo
[41] = AUC(0 to infinity) in Han Wistar rat at 30 mg/kg, po by LC-MS/MS analysis; assay type: ADME, organism-based; design: dose 30 mg/kg, time infinity, route oral; conditions: in vivo
[42] = Oral bioavailability in Han Wistar rat at 30 mg/kg by LC-MS/MS analysis; assay type: ADME, organism-based; conditions: in vivo
[43] = Tmax in Han Wistar rat at 30 mg/kg, po by LC-MS/MS analysis; assay type: ADME, organism-based; conditions: in vivo
Plasma [44] = assay: Drug uptake in Han Wistar rat plasma at 10 mg/kg, iv up to 8 hrs by LC-MS/MS analysis; assay type: ADME, organism-based; conditions: in vivo

SMILES	fraction unbound at 1 ug/ml [1]	fraction unbound [3]	MIC (Streptococcus pneumoniae [4]) [µg/mL]	MIC (Staphylococcus aureus [5]) [µg/mL]	MIC (Streptococcus pyogenes [6]) [µg/mL]	fraction unbound at 1 ug/ml [7]	Vd [8] [L/kg]	fraction unbound at 1 ug/ml [10]	MIC (Haemophilus influenzae) [µg/mL]	ED50 (Staphylococcus aureus [13]) [mg/kg]	MIC (Streptococcus pneumoniae [15]) [µg/mL]	MIC (Streptococcus pyogenes [16]) [µg/mL]	MIC (Streptococcus pneumoniae [19]) [µg/mL]	MIC (Staphylococcus aureus [20]) [µg/mL]	ED50 (Streptococcus pneumoniae [21]) [mg/kg]	MIC (Staphylococcus aureus [22]) [µg/mL]	MIC (Streptococcus pyogenes [24]) [µg/mL]	remaining at 1 h, 1 µM [26] [%]	remaining at 1 h, 1 µM [27] [%]	remaining at 1 h, 1 µM [28] [%]	further results
CC[C@H]1OC(=O)[C@H](C)C(=O)[C@H](C)[C@@H](O[C@@H]2O[C@H](C)C[C@H](N(C)C)[C@H]2O)[C@](C)(OC)C[C@@H](C)C(=O)[C@H](C)[C@H]2N(CCCCn3cnc(-c4cccnc4)c3)C(=O)O[C@]12C [TELITHROMYCIN]	0.56	0.56	≤ 0.125	0.25 (≈ 0.308 µM)	≤ 0.06	0.41	5.6	0.5	2 (≈ 2.46 µM)	5	≤ 0.125	4 (≈ 4.93 µM)	≤ 0.06	> 64	7.2	≤ 0.125	0.25 (≈ 0.308 µM)	–	–	–	AUC(0-inf) [2]: 2730 ng·h/mL; AUC(0-inf) [9]: 3950 ng·h/mL; Cmax [11]: 340 ng/mL; clearance [12]: 42.5 mL/min/kg; CL free (Rattus norvegicus): 75.9 mL/min/kg; Cmax [14]: 1850 ng/mL; half-life [17]: 1.7 h; bioavailability [18]: 33%; Tmax [23]: 2.3 h
CC[C@H]1OC(=O)[C@H](C)[C@@H](O[C@H]2C[C@@](C)(OC)[C@@H](O)[C@H](C)O2)[C@H](C)[C@@H](O[C@@H]2O[C@H](C)C[C@H](N(C)C)[C@H]2O)[C@](C)(O)C[C@@H](C)CN(C)[C@H](C)[C@@H](O)[C@]1(C)O [AZITHROMYCIN]	0.72	–	4 (≈ 5.34 µM)	> 64	≤ 0.125	0.73	–	0.64	1 (≈ 1.34 µM)	–	> 64	> 64	≤ 0.125	> 64	–	1 (≈ 1.34 µM)	1 (≈ 1.34 µM)	100	100	100	Ratio (Staphylococcus aureus [25]): 64
CC[C@H]1OC(=O)[C@H](C)[C@@H](OC(=O)CCNCCNc2cc3c(=O)c(C(=O)O)cn(C4CC4)c3cc2Cl)[C@H](C)[C@@H](O[C@@H]2O[C@H](C)C[C@H](N(C)C)[C@H]2O)[C@](C)(OC/C=C/c2cnc3ccccc3c2)C[C@@H](C)NC(=O)[C@H](C)[C@@H](O)[C@]1(C)O	0.42	0.42	≤ 0.125	0.25 (≈ 0.221 µM)	≤ 0.06	0.3	6.7	0.4	1 (≈ 0.882 µM)	6	≤ 0.125	4 (≈ 3.53 µM)	≤ 0.06	> 64	4.5	≤ 0.125	0.25 (≈ 0.221 µM)	100	100	100	CLH (Liver [29]): < 0.6 mL/min/g; AUC(0-inf) [2]: 7500 ng·h/mL; Stability (Plasma [30]): Stable; AUC(0-t) [31]: 2040 to 9730 ng·h/mL; Ratio ED50 (Staphylococcus aureus [32]): 4; CLH (Liver [33]): < 0.6 mL/min/g; AUC(0-inf) [9]: 8510 ng·h/mL; Cmax [11]: 630 ng/mL; clearance [12]: 20.3 mL/min/kg; AUC(0-t) [34]: 4800 to 10000 ng·h/mL; CL free (Rattus norvegicus): 48.3 mL/min/kg; Cmax [14]: 2480 ng/mL; half-life [17]: 4.3 h; bioavailability [18]: 41.8%; CLH (Liver [35]): < 0.6 mL/min/g; Tmax [23]: 3.3 h; Ratio ED50 (Streptococcus pneumoniae [36]): 6
CC[C@H]1OC(=O)[C@H](C)[C@@H](O[C@H]2C[C@@](C)(OC)[C@@H](O)[C@H](C)O2)[C@H](C)[C@@H](O[C@@H]2O[C@H](C)C[C@H](N(C)C)[C@H]2O)[C@](C)(OC)C[C@@H](C)C(=O)[C@H](C)[C@@H](O)[C@]1(C)O [CLARITHROMYCIN]	1	–	–	–	–	0.88	–	–	–	22.4 to 24.8	–	–	–	–	27.2 to 34.6	–	–	100	91	92.5	PPB (Plasma [37]): 11%
C=CCO[C@]1(C)C[C@@H](C)NC(=O)[C@H](C)[C@@H](O)[C@](C)(O)[C@@H](CC)OC(=O)[C@H](C)[C@@H](OC(=O)CCNCCNc2cc3c(=O)c(C(=O)O)cn(C4CC4)c3cc2Cl)[C@H](C)[C@H]1O[C@@H]1O[C@H](C)C[C@H](N(C)C)[C@H]1O	0.63	0.63	–	0.25 (≈ 0.248 µM)	≤ 0.125	0.45	3.2	0.51	2 (≈ 1.99 µM)	26.5	1 (≈ 0.993 µM)	4 (≈ 3.97 µM)	≤ 0.125	> 64	46.5	≤ 0.125	0.25 (≈ 0.248 µM)	100	99	100	CLH (Liver [29]): < 0.6 mL/min/g; Drug uptake (Plasma [38]): Active; Stability (Plasma [30]): Stable; AUC(0-t) [39]: 50 to 520 ng·h/mL; CLH (Liver [33]): < 0.6 mL/min/g; AUC(0-inf) [9]: 4080 ng·h/mL; clearance [12]: 44.7 mL/min/kg; Cmax [40]: 440 ng/mL; AUC(0-t) [34]: 2450 to 5340 ng·h/mL; CL free (Rattus norvegicus): 71 mL/min/kg; Cmax [14]: 3870 ng/mL; half-life [17]: 1.6 h; AUC(0-inf) [41]: 510 ng·h/mL; CLH (Liver [35]): < 0.6 mL/min/g; bioavailability [42]: 4.9%; Tmax [43]: 0.31 h; Drug uptake (Plasma [44]): Active
